Test results as given in article PMC4503722, “Novel Phenotypic Outcomes Identified for a Public Collection of Approved Drugs from a Publicly Accessible Panel of Assays” (PLoS ONE, 2015).
Like-named read-outs stand apart in the source and are kept apart here.

Legend:
[1] = test system: endothelial tube formation in co-cultures of ECFCs and ADSCs treated with VEGF; assay: cells; type: cell-based, human
HeLa cells = assay: cells; type: cell-based;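 as to Hela CellCycMod PI 4N summarized IC50: value tracks stimulation of 4N DNA content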
hp70S6K1 (RPS6KB1) = target: T1, hp70S6K1 (RPS6KB1) (Homo sapiens, UniProt P23443); assay: Cerep LANCE kinase assay hp70S6K1 (S1 assay 31); type: biochemical; conditions: assay number 31; for IC50: read-out: hp70S6K1 LANCE summarized IC50
T1 construct: purchased Cerep (LANCE kinase assay platform, contract assay)
T1 sequence (P23443 whole entry): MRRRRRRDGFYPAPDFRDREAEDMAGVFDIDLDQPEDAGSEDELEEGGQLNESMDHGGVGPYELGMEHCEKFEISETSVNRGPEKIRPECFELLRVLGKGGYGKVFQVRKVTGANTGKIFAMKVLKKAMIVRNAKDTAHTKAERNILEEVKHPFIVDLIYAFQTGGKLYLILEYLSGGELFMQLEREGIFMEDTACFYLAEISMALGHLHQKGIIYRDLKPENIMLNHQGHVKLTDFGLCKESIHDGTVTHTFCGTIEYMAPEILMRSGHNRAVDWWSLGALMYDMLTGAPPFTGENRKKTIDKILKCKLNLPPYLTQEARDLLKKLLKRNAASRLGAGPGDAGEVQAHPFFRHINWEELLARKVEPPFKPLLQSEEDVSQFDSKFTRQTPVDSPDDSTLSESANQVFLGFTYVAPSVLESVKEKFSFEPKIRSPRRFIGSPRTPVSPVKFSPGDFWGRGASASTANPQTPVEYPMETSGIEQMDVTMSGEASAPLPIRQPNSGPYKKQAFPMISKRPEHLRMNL

hKDR = target: T2, hKDR (Homo sapiens, UniProt P35968); assay: Cerep LANCE kinase assay hKDR (S1 assay 32); type: biochemical; conditions: assay number 32
T2 construct: purchased Cerep (LANCE kinase assay platform, contract assay)
T2 sequence (P35968 20-1356): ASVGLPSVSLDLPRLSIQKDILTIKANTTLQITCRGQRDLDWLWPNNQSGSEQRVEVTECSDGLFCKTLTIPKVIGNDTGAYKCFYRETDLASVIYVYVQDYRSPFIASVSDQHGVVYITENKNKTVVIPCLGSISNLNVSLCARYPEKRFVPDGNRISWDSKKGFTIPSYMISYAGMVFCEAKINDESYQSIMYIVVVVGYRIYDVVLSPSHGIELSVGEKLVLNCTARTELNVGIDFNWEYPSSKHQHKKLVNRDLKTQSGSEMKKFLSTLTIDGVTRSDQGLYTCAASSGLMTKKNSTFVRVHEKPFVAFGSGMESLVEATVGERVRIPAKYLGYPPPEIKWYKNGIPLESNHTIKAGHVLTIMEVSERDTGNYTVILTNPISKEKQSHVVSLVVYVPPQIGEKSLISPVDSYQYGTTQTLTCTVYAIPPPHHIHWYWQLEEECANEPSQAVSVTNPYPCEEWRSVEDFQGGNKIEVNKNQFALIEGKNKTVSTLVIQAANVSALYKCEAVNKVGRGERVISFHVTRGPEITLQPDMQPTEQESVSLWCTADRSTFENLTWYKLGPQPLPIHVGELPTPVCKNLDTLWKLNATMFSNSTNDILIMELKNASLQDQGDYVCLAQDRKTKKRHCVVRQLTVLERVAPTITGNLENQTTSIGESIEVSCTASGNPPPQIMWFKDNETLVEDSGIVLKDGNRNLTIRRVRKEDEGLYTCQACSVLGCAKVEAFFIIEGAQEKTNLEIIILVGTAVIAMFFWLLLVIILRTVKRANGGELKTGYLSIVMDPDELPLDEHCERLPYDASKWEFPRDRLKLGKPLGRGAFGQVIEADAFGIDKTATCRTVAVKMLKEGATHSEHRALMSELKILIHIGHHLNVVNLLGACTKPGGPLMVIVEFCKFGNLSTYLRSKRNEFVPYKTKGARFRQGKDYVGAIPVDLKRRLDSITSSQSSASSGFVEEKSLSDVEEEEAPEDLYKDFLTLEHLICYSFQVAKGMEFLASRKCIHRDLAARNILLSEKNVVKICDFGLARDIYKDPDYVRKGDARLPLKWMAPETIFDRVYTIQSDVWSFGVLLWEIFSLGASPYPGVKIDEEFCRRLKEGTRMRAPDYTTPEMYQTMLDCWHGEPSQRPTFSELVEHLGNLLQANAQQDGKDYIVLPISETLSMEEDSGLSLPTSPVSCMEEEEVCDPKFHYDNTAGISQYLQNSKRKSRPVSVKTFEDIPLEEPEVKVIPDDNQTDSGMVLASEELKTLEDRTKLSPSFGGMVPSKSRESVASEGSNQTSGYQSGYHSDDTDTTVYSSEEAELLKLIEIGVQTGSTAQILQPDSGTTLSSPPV

hJAK2 = target: T3, hJAK2 (Homo sapiens, UniProt O60674); assay: Cerep LANCE kinase assay hJAK2 (S1 assay 33); type: biochemical; conditions: assay number 33; for IC50: read-out: hJAK2 LANCE summarized IC50
T3 construct: purchased Cerep (LANCE kinase assay platform, contract assay)
T3 sequence (O60674 whole entry): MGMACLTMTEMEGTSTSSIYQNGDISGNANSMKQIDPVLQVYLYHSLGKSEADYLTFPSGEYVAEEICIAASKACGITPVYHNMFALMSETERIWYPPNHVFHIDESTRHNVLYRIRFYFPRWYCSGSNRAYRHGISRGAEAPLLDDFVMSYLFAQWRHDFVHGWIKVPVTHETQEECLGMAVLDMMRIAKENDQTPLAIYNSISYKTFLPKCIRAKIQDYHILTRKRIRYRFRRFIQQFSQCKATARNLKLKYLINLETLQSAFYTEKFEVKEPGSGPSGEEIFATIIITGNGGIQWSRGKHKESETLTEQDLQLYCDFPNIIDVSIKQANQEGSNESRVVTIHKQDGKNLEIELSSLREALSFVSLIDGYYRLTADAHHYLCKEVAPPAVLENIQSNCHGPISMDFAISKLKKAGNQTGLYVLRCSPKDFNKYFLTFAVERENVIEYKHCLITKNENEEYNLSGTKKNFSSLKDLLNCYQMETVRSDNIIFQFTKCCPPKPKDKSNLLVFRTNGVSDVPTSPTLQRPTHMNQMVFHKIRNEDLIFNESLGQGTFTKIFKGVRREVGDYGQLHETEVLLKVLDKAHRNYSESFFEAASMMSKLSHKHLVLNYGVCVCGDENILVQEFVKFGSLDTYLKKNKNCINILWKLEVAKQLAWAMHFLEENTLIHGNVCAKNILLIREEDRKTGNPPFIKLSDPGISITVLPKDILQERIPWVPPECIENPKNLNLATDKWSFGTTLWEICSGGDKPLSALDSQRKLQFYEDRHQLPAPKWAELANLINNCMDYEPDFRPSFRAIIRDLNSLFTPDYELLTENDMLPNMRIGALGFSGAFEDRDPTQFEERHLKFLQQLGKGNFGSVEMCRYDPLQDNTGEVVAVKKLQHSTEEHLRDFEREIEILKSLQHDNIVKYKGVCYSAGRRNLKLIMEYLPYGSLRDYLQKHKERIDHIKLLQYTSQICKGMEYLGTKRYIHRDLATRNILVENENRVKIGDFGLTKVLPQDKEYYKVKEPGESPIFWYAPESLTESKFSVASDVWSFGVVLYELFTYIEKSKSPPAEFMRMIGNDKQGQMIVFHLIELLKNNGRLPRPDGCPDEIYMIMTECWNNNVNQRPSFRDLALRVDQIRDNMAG

hGSK3b = target: T4, hGSK3b (Homo sapiens, UniProt P49841); assay: Cerep LANCE kinase assay hGSK3b (S1 assay 34); type: biochemical; conditions: assay number 34; for IC50: read-out: hGSK3b LANCE summarized IC50
T4 construct: purchased Cerep (LANCE kinase assay platform, contract assay)
T4 sequence (P49841 whole entry): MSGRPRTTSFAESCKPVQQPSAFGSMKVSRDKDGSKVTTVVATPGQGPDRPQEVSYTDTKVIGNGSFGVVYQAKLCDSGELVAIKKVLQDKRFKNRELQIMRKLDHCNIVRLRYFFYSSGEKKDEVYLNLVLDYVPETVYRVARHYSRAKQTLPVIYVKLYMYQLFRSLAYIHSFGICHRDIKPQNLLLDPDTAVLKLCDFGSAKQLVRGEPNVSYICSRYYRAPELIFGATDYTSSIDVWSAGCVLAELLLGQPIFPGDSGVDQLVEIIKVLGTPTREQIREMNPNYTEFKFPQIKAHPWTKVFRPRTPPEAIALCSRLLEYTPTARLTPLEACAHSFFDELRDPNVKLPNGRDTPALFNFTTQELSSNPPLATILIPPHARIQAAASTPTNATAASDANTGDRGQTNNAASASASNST

hFLT3 = target: T5, hFLT3 (Homo sapiens, UniProt P36888); assay: Cerep LANCE kinase assay hFLT3 (S1 assay 35); type: biochemical; conditions: assay number 35; for IC50: read-out: hFLT3 LANCE summarized IC50
T5 construct: purchased Cerep (LANCE kinase assay platform, contract assay)
T5 sequence (P36888 27-993): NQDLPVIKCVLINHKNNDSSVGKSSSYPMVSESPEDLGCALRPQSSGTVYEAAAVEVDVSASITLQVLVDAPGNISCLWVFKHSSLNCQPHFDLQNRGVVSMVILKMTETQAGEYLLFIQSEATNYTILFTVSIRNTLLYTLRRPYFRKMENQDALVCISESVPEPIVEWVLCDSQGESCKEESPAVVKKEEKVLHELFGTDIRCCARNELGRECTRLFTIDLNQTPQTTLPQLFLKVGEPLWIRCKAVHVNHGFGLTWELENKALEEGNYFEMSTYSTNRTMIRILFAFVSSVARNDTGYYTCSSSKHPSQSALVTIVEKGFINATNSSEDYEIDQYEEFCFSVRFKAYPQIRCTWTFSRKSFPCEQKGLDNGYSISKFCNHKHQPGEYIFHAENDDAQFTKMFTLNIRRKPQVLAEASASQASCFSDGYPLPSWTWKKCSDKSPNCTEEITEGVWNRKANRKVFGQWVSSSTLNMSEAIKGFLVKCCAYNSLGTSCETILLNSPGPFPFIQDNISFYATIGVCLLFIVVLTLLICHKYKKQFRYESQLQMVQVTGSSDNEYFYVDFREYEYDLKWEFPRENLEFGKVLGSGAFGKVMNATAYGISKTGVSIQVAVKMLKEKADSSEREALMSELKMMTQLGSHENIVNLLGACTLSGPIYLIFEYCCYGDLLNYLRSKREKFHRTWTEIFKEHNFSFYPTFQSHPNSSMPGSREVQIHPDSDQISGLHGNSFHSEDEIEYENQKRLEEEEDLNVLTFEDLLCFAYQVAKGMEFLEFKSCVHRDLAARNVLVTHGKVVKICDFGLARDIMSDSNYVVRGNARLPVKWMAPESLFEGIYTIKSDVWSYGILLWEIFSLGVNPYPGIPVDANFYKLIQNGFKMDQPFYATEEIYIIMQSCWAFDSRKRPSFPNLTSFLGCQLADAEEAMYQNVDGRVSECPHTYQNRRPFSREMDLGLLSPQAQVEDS

[2] = test system: ECFC/ADSC co-culture cell nuclei number; conditions: for IC50: read-out: VEGF_ADSC\ECFC Angio Hoechst NucArea summarized IC50
DLD-1 = assay: cells; type: cell-based; conditions: assay number 23, basal
SW480 = assay: cells; type: cell-based; conditions: assay number 24, basal
HCT116 = assay: cells; type: cell-based; conditions: assay number 25, basal
[3] = test system: HCT116 cells treated with a GSK3β inhibitor; assay: cells; type: cell-based; conditions: assay number 26; GSK3b inhibitor pretreated; read-out: GSK3b inh pretreated_Viability ATP HCT116 summarized IC50
Colo320 = assay: cells; type: cell-based; conditions: assay number 27, basal
HT-29 = assay: cells; type: cell-based; conditions: assay number 28, basal
RKO = assay: cells; type: cell-based; conditions: assay number 29, basal
SNU-C1 = assay: cells; type: cell-based; conditions: assay number 30, basal
[4] = assay number 14, 2N, read-out: Hela CellCycMod PI 2N summarized IC50
[5] = assay number 15, S phase, read-out: Hela CellCycMod PI S Phase summarized IC50
[6] = assay number 16, 4N, read-out: Hela CellCycMod PI 4N summarized IC50
[7] = assay number 17, MI, read-out: Hela CellCycMod PI MI summarized IC50
[8] = assay number 18, cell number, read-out: Hela CellCycMod PI Cell Number summarized IC50

Row | SMILES | VEGF_ADSC\ECFC Angio CD31 TubeArea IC50/EC50 [1] [µM] | Hela CellCycMod PI 2N IC50/EC50 (HeLa cells; assay number 14, 2N) [µM] | Hela CellCycMod PI 4N IC50/EC50 (HeLa cells; assay number 16, 4N) [µM] | Hela CellCycMod PI MI IC50/EC50 (HeLa cells; assay number 17, MI) [µM] | Hela CellCycMod PI Cell Number IC50/EC50 (HeLa cells; assay number 18, cell number) [µM] | hp70S6K1 LANCE IC50/EC50 (hp70S6K1 (RPS6KB1)) [µM] | hKDR LANCE IC50/EC50 (hKDR) [µM] | hJAK2 LANCE IC50/EC50 (hJAK2) [µM] | hGSK3b LANCE IC50/EC50 (hGSK3b) [µM] | hFLT3 LANCE IC50/EC50 (hFLT3) [µM] | VEGF_ADSC\ECFC Angio Hoechst NucArea IC50/EC50 [2] [µM] | Hela CellCycMod PI S Phase IC50/EC50 (HeLa cells; assay number 15, S phase) [µM] | IC50 (HeLa cells; [4]) [µM] | IC50 (HeLa cells; [5]) [µM] | IC50 (HeLa cells; [6]) [µM] | IC50 (HeLa cells; [7]) [µM] | IC50 (HeLa cells; [8]) [µM] | IC50 (hp70S6K1 (RPS6KB1)) [µM] | IC50 (hJAK2) [µM] | IC50 (hGSK3b) [µM] | further results
1 | CCC(C)n1ncn(-c2ccc(N3CCN(c4ccc(OC[C@H]5CO[C@](Cn6cncn6)(c6ccc(Cl)cc6Cl)O5)cc4)CC3)cc2)c1=O (some centres unmarked) [NCGC00274068-01] | 1.5488 | > 10 | > 10 | > 10 | > 10 | > 20 | > 20 | > 20 | > 20 | > 20 | > 10 | – | – | – | – | – | – | – | – | – | –
2 | COc1cc(-c2ccc(=O)[nH]n2)ccc1OC(F)F [NCGC00016106-13] | 1.2205 | > 10 | > 10 | > 10 | 0.0092 | > 20 | > 20 | > 20 | > 20 | > 20 | > 10 | > 10 | – | – | – | – | – | – | – | – | –
3 | C[C@@H]1C[C@@H]([C@H](O)CC2CC(=O)NC(=O)C2)C(=O)[C@@H](C)C1 [NCGC00169964-05] | 1.1486 | > 10 | > 10 | > 10 | 0.5421 | > 20 | > 20 | > 20 | > 20 | > 20 | > 10 | – | – | – | – | – | – | – | – | – | –
4 | COc1cc([C@@H]2c3cc4c(cc3[C@H](O)[C@H]3COC(=O)[C@H]23)OCO4)cc(OC)c1OC [NCGC00022001-13] | – | – | – | – | – | – | – | – | – | – | – | – | 0.0089 | > 10 | 0.0077 | 0.0112 | 0.0048 | > 20 | > 20 | > 20 | IC50 ([1]; read-out: VEGF_ADSC\ECFC Angio CD31 TubeArea summarized IC50): 0.0081 µM; IC50 (hKDR; read-out: hKDR LANCE summarized IC50): > 20 µM; IC50 (hFLT3): > 20 µM; IC50 [2]: > 10 µM
5 | CCCCCCCCCCCCCCCC[n+]1ccccc1 [NCGC00091023-06] | – | – | – | – | – | – | – | – | – | – | – | – | 1.25 | > 10 | > 10 | 0.515 | 0.405 | > 20 | > 20 | > 20 | IC50 (DLD-1; read-out: Basal_Viability ATP DLD-1 summarized IC50): 1.93 µM; IC50 (SW480; read-out: Basal_Viability ATP SW480 summarized IC50): 1.61 µM; IC50 (HCT116; read-out: Basal_Viability ATP HCT116 summarized IC50): 1.19 µM; IC50 [3]: 2.29 µM; IC50 (Colo320; read-out: Basal_Viability ATP Colo 320 summarized IC50): 1.64 µM; IC50 (HT-29; read-out: Basal_Viability ATP HT-29 summarized IC50): 2.29 µM; IC50 (RKO; read-out: Basal_Viability ATP RKO summarized IC50): 1.27 µM; IC50 (SNU-C1; read-out: Basal_Viability ATP SNU-C1 summarized IC50): 0.934 µM; IC50 (hFLT3): > 20 µM; IC50 [2]: 3.01 µM
6 | COc1ccc(-c2ccc3cc(C(=O)O)ccc3c2)cc1C12CC3CC(CC(C3)C1)C2 [NCGC00164617-04] | 0.5236 | > 10 | > 10 | > 10 | 5.4943 | > 20 | 7.1 | 5.57 | 7.25 | > 20 | > 10 | > 10 | – | – | – | – | – | – | – | – | Basal_Viability ATP DLD-1 IC50/EC50 (DLD-1): 0.5971 µM; Basal_Viability ATP SW480 IC50/EC50 (SW480): 0.4051 µM; Basal_Viability ATP HCT116 IC50/EC50 (HCT116): 0.5897 µM; Basal_Viability ATP Colo 320 IC50/EC50 (Colo320): 0.7871 µM; Basal_Viability ATP HT-29 IC50/EC50 (HT-29): 1.1248 µM; Basal_Viability ATP RKO IC50/EC50 (RKO): 0.4435 µM; Basal_Viability ATP SNU-C1 IC50/EC50 (SNU-C1): 1.7798 µM
